# Experimental data taken from article PMC6396940, “EhFP10: A FYVE family GEF interacts with myosin IB to regulate cytoskeletal dynamics during endocytosis in Entamoeba histolytica” (PLoS Pathogens, 2019).
# Ends that are not written are not given here.
# B1: peptide P3 from Rho family GTPase (peptide)
# peptide: NIVPIQPPQ
# modifications: not fully specified
# B2: peptide P5 from Rho family GTPase (peptide)
# peptide: QHCPNVPII
# modifications: not fully specified
# Tests used:
# [1] = molecular target: EhMySH3 (SH3 domain of EhMyosin IB) (Entamoeba histolytica, UniProt C4LUC7); experiment: SPR binding of peptides to immobilized EhMySH3 (Autolab SPR); details: for relative SPR binding response: 0.8 mM of each peptide passed over immobilized EhMySH3, compared with the other peptides; for Kd: SPR kinetic analysis, peptide passed over immobilized EhMySH3, 10 mM HEPES, 150 mM NaCl, 3 mM EDTA, 0.05% NP-40, pH 7.4, 25°C, text: values could not be calculated accurately (peptides about 1000 Da), read-out: Binding affinity (KD, equilibrium dissociation constant)
# Description: For binding studies of EhMySH3 with peptides, an Autolab SPR apparatus was used at the Advanced Instrumentation Research Facility, Jawaharlal Nehru University, New Delhi, India. Here, the 11-mercaptoundecanoic acid (11MUA) monolayer on the surface of the gold chip (Autolab) was activated by N-hydroxysuccinimide (NHS; 0.05 M)/[…] (EDC; 0.2 M). EhMySH3 protein (ligand) at a concentration of 37 μM was immobilized in channel 1 on the activated surface of the gold chip in 10 mM sodium acetate buffer (pH 5.0) up to 700 RU. During experimentation, channel 1 was used to pass the analytes (peptides) while channel 2 was used as a blank (the signals of the analyte with a ligand-free surface). After ligand immobilization, the surface was blocked with 100 mM ethanolamine at pH 8.5, followed by regeneration using 50 mM NaOH. The different peptides, each at various concentrations, were each injected at a rate of 20 μl/min across the sensor chip surface and the association kinetics and dissociation kinetics were monitored for 200 s and 100 s, respectively. All of the dilutions were done in running buffer, i.e., 10 mM HEPES, 150 mM NaCl, 3 mM EDTA, 0.05% NP-40 surfactant [pH 7.4].
# All of the data were recorded at 25°C. For the evaluation of the kinetics, differential sensorgrams were analyzed using Autolab SPR Kinetic Evaluation software.
# [2] = molecular target: filamentous rabbit muscle actin (F-actin) (rabbit) (UniProt P68135)
# [3] = molecular target: c-terminal SH3 domain of EhMyosin IB (EhMySH3) (Entamoeba histolytica); experiment: SPR; Autolab SPR; EhMySH3 immobilised (1.175 ng/mm^3), cterEhFP10 at various concentrations passed over; association 400 s, dissociation 150 s; 25 C
# [4] = molecular target: filamentous rabbit muscle actin (F-actin) (rabbit) (UniProt P68135); experiment: SPR; Autolab SPR; F-actin immobilised (0.67 ng/mm^3; 50 mM sodium acetate pH 4.1, 0.05 mM CaCl2, 0.05 mM ATP, 0.125 mM DTT), cterEhFP10 at various concentrations passed over; 25 C
# [5] = molecular target: c-terminal SH3 domain of EhMyosin IB (EhMySH3) (Entamoeba histolytica); experiment: SPR; Autolab SPR; EhMySH3 immobilised on an 11-MUA gold chip (NHS/EDC, up to 700 RU), peptides injected at 20 ul/min; 10 mM HEPES, 150 mM NaCl, 3 mM EDTA, 0.05% NP-40, pH 7.4; 25 C
molecule,measurement,setting,value
"KVAPPIPHR [P2, pseudo-symmetrical class I + II peptide … from EhFP10, co-crystallized with EhMySH3]",relative SPR binding response,[1],highest binding response
"RPQPPTP [P4, class I peptide RPQPPTP from EhFP10]",relative SPR binding response,[1],weakest binding
SLPPKPLR [P1],Kd,[1],400 µM
NIVPIQPPQ [P3],Kd,[1],1000 µM
QHCPNVPII [P5],Kd,[1],700 µM
c-terminal domain of EhFP10 (cterEhFP10) (domain or fragment),"thickness of actin bundles by TEM, filaments of 4 nm to 7 nm without and bundles with 10 uM to 20 uM cterEhFP10",[2],120 nm
same,Kd,[3],0.2 µM
same,Kd,[4],0.087 µM
B1,Kd,[5],1000 µM
B2,Kd,[5],700 µM
